According to PubChem BioAssay (NCI):
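Dose response: 5 concentrations. Exposure: 48 h. Format: 96-well plates. Endpoint: linear interpolation; highest concentration if not reached. TGI is the concentration that stops growth completely.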

How the values were obtained:
Experiment in all cases: NCI tumour cell line growth inhibition, 48 h
[1] = system: 786-0 renal
[2] = system: A498 renal
[3] = system: A549 NSCLC
[4] = system: ACHN renal
[5] = system: BT-549 breast
[6] = system: CAKI-1 renal
[7] = system: CCRF-CEM leukemia
[8] = system: COLO 205 colon
[9] = system: DU-145 prostate
[10] = system: EKVX NSCLC
[11] = system: HCC-2998 colon
[12] = system: HCT-116 colon
[13] = system: HCT-15 colon
[14] = system: HL-60(TB) leukemia
[15] = system: HOP-62 NSCLC
[16] = system: HOP-92 NSCLC
[17] = system: HS 578T breast
[18] = system: HT29 colon
[19] = system: IGROV1 ovarian
[20] = system: K-562 leukemia
[21] = system: KM12 colon
[22] = system: LOX IMVI melanoma
[23] = system: M14 melanoma
[24] = system: MALME-3M melanoma
[25] = system: MCF7 breast
[26] = system: MDA-MB-231 breast
[27] = system: MDA-MB-435
[28] = system: MDA-N
[29] = system: MOLT-4 leukemia
[30] = system: NCI-H226 lung
[31] = system: NCI-H23 lung
[32] = system: NCI-H460 lung
[33] = system: NCI-H522 lung
[34] = system: NCI/ADR-RES ovarian
[35] = system: OVCAR-3 ovarian
[36] = system: OVCAR-4 ovarian
[37] = system: OVCAR-5 ovarian
[38] = system: OVCAR-8 ovarian
[39] = system: PC-3 prostate
[40] = system: RPMI-8226 leukemia
[41] = system: RXF 393 renal
[42] = system: SF-268 CNS
[43] = system: SF-295 CNS
[44] = system: SF-539 CNS
[45] = system: SK-MEL-2 melanoma
[46] = system: SK-MEL-28 melanoma
[47] = system: SK-MEL-5 melanoma
[48] = system: SK-OV-3 ovarian
[49] = system: SN12C renal
[50] = system: SNB-19 CNS
[51] = system: SNB-75 CNS
[52] = system: SR leukemia
[53] = system: SW-620 colon
[54] = system: T-47D breast
[55] = system: TK-10 renal
[56] = system: U251 CNS
[57] = system: UACC-257 melanoma
[58] = system: UACC-62 melanoma
[59] = system: UO-31 renal

C=CC(c1ccccc1)[C@@]1(OC(C)=O)C(=O)C(=O)OC1C1COC(C)(C)O1 (some centres not stated)
TGI [1]: 33.4 µM | TGI [2]: 47.9 µM | TGI [3]: 34.5 µM | TGI [4]: 18.6 µM | TGI [5]: 30.1 µM | TGI [6]: 11.7 µM | TGI [7]: > 19.6 µM | TGI [8]: 26.5 µM | TGI [9]: 54.2 µM | TGI [10]: 35.3 µM | TGI [11]: 32.8 µM | TGI [12]: 24.7 µM | TGI [13]: 24.9 µM | TGI [14]: 5.86 µM | TGI [15]: 34.2 µM | TGI [16]: 15.9 µM | TGI [17]: 68.3 µM | TGI [18]: 46.2 µM | TGI [19]: 31.9 µM | TGI [20]: > 26 µM | TGI [21]: 29.5 µM | TGI [22]: 16.2 µM | TGI [23]: 25.5 µM | TGI [24]: 34.3 µM | TGI [25]: 22.8 µM | TGI [26]: 28.5 µM | TGI [27]: 31.2 µM | TGI [28]: 24.1 µM | TGI [29]: 34.6 µM | TGI [30]: 37.6 µM | TGI [31]: 42.9 µM | TGI [32]: 32.3 µM | TGI [33]: 10.8 µM | TGI [34]: 51.7 µM | TGI [35]: 24.8 µM | TGI [36]: 30.5 µM | TGI [37]: 33.2 µM | TGI [38]: 27.9 µM | TGI [39]: 24.3 µM | TGI [40]: 56.4 µM | TGI [41]: 14.6 µM | TGI [42]: 71.4 µM | TGI [43]: 31.6 µM | TGI [44]: 29.4 µM | TGI [45]: 33.4 µM | TGI [46]: 24.6 µM | TGI [47]: 29.7 µM | TGI [48]: 32.3 µM | TGI [49]: 21.7 µM | TGI [50]: 42.7 µM | TGI [51]: 36.6 µM | TGI [52]: 10.2 µM | TGI [53]: 35.8 µM | TGI [54]: 41.1 µM | TGI [55]: 27.1 µM | TGI [56]: 28.7 µM | TGI [57]: 23.9 µM | TGI [58]: 29 µM | TGI [59]: 23.7 µM

N#CCCCC[N+]12CN3CN(CN(C3)C1)C2
TGI [1]: > 100 µM | TGI [2]: > 100 µM | TGI [3]: > 100 µM | TGI [4]: > 100 µM | TGI [5]: > 100 µM | TGI [6]: > 100 µM | TGI [7]: > 100 µM | TGI [8]: > 100 µM | TGI [9]: > 100 µM | TGI [10]: > 100 µM | TGI [11]: > 100 µM | TGI [12]: > 100 µM | TGI [13]: > 100 µM | TGI [14]: > 100 µM | TGI [15]: > 100 µM | TGI [16]: > 100 µM | TGI [17]: > 100 µM | TGI [18]: > 100 µM | TGI [19]: > 100 µM | TGI [20]: > 100 µM | TGI [21]: > 100 µM | TGI [22]: > 100 µM | TGI [23]: > 100 µM | TGI [24]: > 100 µM | TGI [25]: > 100 µM | TGI [26]: > 100 µM | TGI [27]: > 100 µM | TGI [28]: > 100 µM | TGI [29]: > 100 µM | TGI [30]: > 100 µM | TGI [31]: > 100 µM | TGI [32]: > 100 µM | TGI [33]: > 100 µM | TGI [34]: > 100 µM | TGI [35]: > 100 µM | TGI [36]: > 100 µM | TGI [37]: > 100 µM | TGI [38]: > 100 µM | TGI [39]: > 100 µM | TGI [40]: > 100 µM | TGI [41]: > 100 µM | TGI [42]: > 100 µM | TGI [43]: > 100 µM | TGI [44]: 54 µM | TGI [45]: > 100 µM | TGI [46]: > 100 µM | TGI [47]: > 100 µM | TGI [48]: > 100 µM | TGI [49]: > 100 µM | TGI [50]: > 100 µM | TGI [51]: > 100 µM | TGI [52]: > 100 µM | TGI [53]: > 100 µM | TGI [54]: > 100 µM | TGI [55]: > 100 µM | TGI [56]: > 100 µM | TGI [57]: > 100 µM | TGI [58]: > 100 µM | TGI [59]: > 100 µM

CN(CCCCN1CCCC1)CCCN(C)C(=O)Cc1ccc(Cl)c(Cl)c1
TGI [1]: 26.1 µM | TGI [2]: 30.7 µM | TGI [3]: 44.5 µM | TGI [4]: > 100 µM | TGI [5]: 32.5 µM | TGI [6]: 49.6 µM | TGI [7]: 20.9 µM | TGI [8]: 28.9 µM | TGI [9]: > 100 µM | TGI [10]: 37.6 µM | TGI [11]: 16.9 µM | TGI [12]: 28.3 µM | TGI [13]: 85.1 µM | TGI [14]: 34.1 µM | TGI [15]: 34.4 µM | TGI [16]: 21.3 µM | TGI [17]: 59.6 µM | TGI [18]: 18.1 µM | TGI [19]: 45.2 µM | TGI [20]: 11.6 µM | TGI [21]: 25.3 µM | TGI [22]: 27.9 µM | TGI [23]: 38.1 µM | TGI [24]: 34.7 µM | TGI [25]: 34.4 µM | TGI [26]: 26.1 µM | TGI [27]: 10.2 µM | TGI [28]: 15.5 µM | TGI [29]: 26.5 µM | TGI [30]: 51.9 µM | TGI [31]: 37.7 µM | TGI [32]: 39.8 µM | TGI [33]: 27.9 µM | TGI [34]: > 100 µM | TGI [35]: 62.4 µM | TGI [36]: 53.8 µM | TGI [37]: 57.8 µM | TGI [38]: > 100 µM | TGI [39]: 52.7 µM | TGI [40]: 25.9 µM | TGI [41]: 29.6 µM | TGI [42]: > 100 µM | TGI [43]: 38.8 µM | TGI [44]: 24.3 µM | TGI [45]: 22.5 µM | TGI [46]: 3.51 µM | TGI [47]: 23.8 µM | TGI [48]: > 100 µM | TGI [49]: 37.8 µM | TGI [50]: 57.2 µM | TGI [51]: 47.5 µM | TGI [52]: 15.6 µM | TGI [53]: 42.6 µM | TGI [54]: 44.2 µM | TGI [55]: 33.7 µM | TGI [56]: 32.4 µM | TGI [57]: 13.5 µM | TGI [58]: 16.9 µM | TGI [59]: 3.72 µM
